US20080242713A1, “Novel 5-cyano-prostacyclin derivatives as agents for the treatment of autoimmune diseases” (priority 2007, published 2008)

Legend:
EP4 receptor [1] = biological target: T1, EP4 receptor (Homo sapiens, UniProt P35408); test: cAMP accumulation assay in cells expressing EP4 (Biological Example 2, tetrazole derivatives); assay type: cell-based; conditions: cAMP luminescence, mean of triplicate
Protocol: (§1) Commercial cAMP accumulation assays are typically competitive immunoassays in which free cAMP from cell lysates competes for antibody binding against a “labeled” cAMP molecule. This positive signal is generated in direct proportion to the amount of free cAMP. In our assays cAMP standards and samples are pipetted into the wells of a microplate. An antibody specific cAMP is added to the wells. A substrate is added to the wells and luminescence develops in proportion to the amount of cAMP which accumulated during treatment of cells which express the EP4 receptor with standards and samples. The intensity of the luminescence is measured in a luminometer.
Results shown are the mean of triplicate determinations.

EP4 receptor [2] = biological target: T1, EP4 receptor; test: cAMP accumulation assay in cells expressing EP4 (Biological Example 1, diol derivative); assay type: cell-based; conditions: for RLU - background: cAMP luminescence, mean of triplicate
Protocol: as §1
The response of the EP4 expressing cells treated with the diol derivative is compared to Nileprost. Results shown are the mean of triplicate determinations.

T1 sequence (P35408 whole entry): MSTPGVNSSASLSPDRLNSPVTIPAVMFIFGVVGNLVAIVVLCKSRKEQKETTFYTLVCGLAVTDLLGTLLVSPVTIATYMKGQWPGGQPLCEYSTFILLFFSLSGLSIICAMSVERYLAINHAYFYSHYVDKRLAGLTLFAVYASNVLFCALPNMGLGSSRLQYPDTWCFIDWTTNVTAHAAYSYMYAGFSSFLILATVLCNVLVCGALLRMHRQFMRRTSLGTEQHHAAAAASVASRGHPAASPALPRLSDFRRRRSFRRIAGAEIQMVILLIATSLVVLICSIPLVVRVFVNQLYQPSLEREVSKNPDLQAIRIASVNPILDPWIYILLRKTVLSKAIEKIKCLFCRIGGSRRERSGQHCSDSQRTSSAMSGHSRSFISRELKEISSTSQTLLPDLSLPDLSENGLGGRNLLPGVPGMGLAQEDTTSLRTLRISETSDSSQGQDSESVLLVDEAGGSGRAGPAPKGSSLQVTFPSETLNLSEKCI

RLU - background (EP4 receptor [2]; compound 0.010 nM) [RLU] | RLU - background (EP4 receptor [2]; compound 0.152 nM) [RLU] | RLU - background (EP4 receptor [2]; compound 0.457 nM) [RLU] | RLU - background (EP4 receptor [2]; compound 1.372 nM) [RLU] | RLU - background (EP4 receptor [2]; compound 4.115 nM) [RLU] | RLU - background (EP4 receptor [2]; compound 12.346 nM) [RLU] | RLU - background (EP4 receptor [2]; compound 37.037 nM) [RLU] | RLU - background (EP4 receptor [2]; compound 111.111 nM) [RLU] | SMILES | RLU - background (EP4 receptor [1]; compound 0.005 nM) [RLU] | RLU - background (EP4 receptor [1]; compound 0.052 nM) [RLU] | RLU - background (EP4 receptor [1]; compound 0.157 nM) [RLU] | RLU - background (EP4 receptor [1]; compound 0.472 nM) [RLU] | RLU - background (EP4 receptor [1]; compound 1.417 nM) [RLU] | RLU - background (EP4 receptor [1]; compound 4.252 nM) [RLU] | RLU - background (EP4 receptor [1]; compound 12.757 nM) [RLU] | RLU - background (EP4 receptor [1]; compound 38.272 nM) [RLU] | RLU - background (EP4 receptor [1]; compound 114.815 nM) [RLU] | RLU - background (EP4 receptor [1]; compound 344.444 nM) [RLU] | RLU - background (EP4 receptor [1]; compound 1033.333 nM) [RLU] | RLU - background (EP4 receptor [1]; compound 3100.000 nM) [RLU] | further results
– | – | – | – | – | – | – | – | CCCCC(C)[C@@H](O)/C=C/[C@@H]1[C@H]2C/C(=C(/C#N)CCCc3nnn[nH]3)O[C@H]2C[C@H]1O (stereo partly drawn) [Cpd. #3, α-[(3a R,4R,5R,6aS)-hexahydro-5-hydroxy-4-[(1E,3R)-3-hydroxy-4-methyl-1-octenyl]-2H-cyclopenta[b]furan-2-ylidene]-1H-tetrazole-5-2Z-pentanenitrile] | 76373.33 | 79997.33 | 83616.00 | 118397.33 | 273778.67 | 374920.00 | 522154.67 | 697208.00 | 773429.33 | 813525.33 | 710053.33 | 714320.00 | –
– | – | – | – | – | – | – | – | CCCCC(C)[C@H](O)/C=C/[C@@H]1[C@H]2C/C(=C(\C#N)CCCc3nnn[nH]3)O[C@H]2C[C@H]1O (stereo partly drawn) [Cpd. #1, α-[(3aR,4R,5R,6aS)-hexahydro-5-hydroxy-4-[(1E,3S)-3-hydroxy-4-methyl-1-octenyl]-2H-cyclopenta[b]furan-2-ylidene]-1H-tetrazole-5-2E-pentanenitrile] | 53600.00 | 17642.67 | 22533.33 | 27365.33 | 157357.33 | 373856.00 | 435810.67 | 484954.67 | 514858.67 | 606992.00 | 584826.67 | 559813.33 | –
0 | 0 | 0 | 152432 | 532234 | 912060 | 1019082 | 1150386 | CCCCC(C)[C@H](O)/C=C/[C@@H]1[C@H]2C/C(=C(\C#N)CCCC(O)CO)O[C@H]2C[C@H]1O (stereo partly drawn) [Cpd. #5, 2-[(3aR,4R,5R,6aS)-hexahydro-5-hydroxy-4-[(1E,3S)-3-hydroxy-4-methyl-1-octenyl]-2H-cyclopenta[b]furan-2-ylidene]-6,7-dihydroxy-, (2E)-heptanenitrile] | – | – | – | – | – | – | – | – | – | – | – | – | RLU - background (EP4 receptor [2]; compound 333.333 nM): 1291820 RLU; RLU - background (EP4 receptor [2]; compound 1000.000 nM): 1260692 RLU; RLU - background (EP4 receptor [2]; compound 3000.000 nM): 1201852 RLU; RLU - background (EP4 receptor [2]; compound 9000.000 nM): 1206470 RLU; EP4 agonist activity in the cAMP accumulation assay (EP4 receptor [2]; result in words): dose-responsively showed EP4 agonist activity
0 | 850786 | 1291900 | 1521826 | 1626762 | 1589698 | 1312998 | 1258626 | CCCCC(C)C(O)C=CC1C(O)CC2OC(=C(C#N)CCCC(=O)O)CC21 (stereo not shown) [Nileprost, 5-cyano-16-methylprostacyclin, reference compound] | – | – | – | – | – | – | – | – | – | – | – | – | RLU - background (EP4 receptor [2]; compound 333.333 nM): 1648306 RLU; RLU - background (EP4 receptor [2]; compound 1000.000 nM): 1635488 RLU; RLU - background (EP4 receptor [2]; compound 3000.000 nM): 1625442 RLU; RLU - background (EP4 receptor [2]; compound 9000.000 nM): 1599712 RLU
– | – | – | – | – | – | – | – | CCCCC[C@H](O)/C=C/[C@@H]1[C@H]2CC(=C(C#N)CCCc3nnn[nH]3)O[C@H]2C[C@H]1O [Cpd. #4, α-[(3aR,4R,5R,6aS)-hexahydro-5-hydroxy-4-[(1E,3S)-3-hydroxy-1-octenyl]-2H-cyclopenta[b]furan-2-ylidene]-1H-tetrazole-5-pentanenitrile] | 146597.33 | 83650.67 | 40557.33 | 46426.67 | 82445.33 | 158224.00 | 429672.00 | 554328.00 | 813194.67 | 909808.00 | 808477.33 | 820866.67 | –
